Experiment [1] has as its target Dual specificity tyrosine-phosphorylation-regulated kinase 1B (Homo sapiens, UniProt Q9Y463). As to the kind of experiment: Inhibition of recombinant DYRK1B (unknown origin) after 120 mins in presence of [33P]-ATP.
Experiment [2] deals with Dual specificity tyrosine-phosphorylation-regulated kinase 1A (Homo sapiens, UniProt Q13627). As to the kind of experiment: Inhibition of recombinant DYRK1A (unknown origin) after 120 mins in presence of [33P]-ATP.

Among the data in ChEMBL document CHEMBL2384972, “Tricyclic Pyrimidines As Inhibitors of DYRK1A/DYRK1B As Potential Treatment for Down's Syndrome or Alzheimer's Disease” (ACS Med Chem Lett, 2013) are IC50 values, retold here.

Sequence of Dual specificity tyrosine-phosphorylation-regulated kinase 1B (Q9Y463 whole entry): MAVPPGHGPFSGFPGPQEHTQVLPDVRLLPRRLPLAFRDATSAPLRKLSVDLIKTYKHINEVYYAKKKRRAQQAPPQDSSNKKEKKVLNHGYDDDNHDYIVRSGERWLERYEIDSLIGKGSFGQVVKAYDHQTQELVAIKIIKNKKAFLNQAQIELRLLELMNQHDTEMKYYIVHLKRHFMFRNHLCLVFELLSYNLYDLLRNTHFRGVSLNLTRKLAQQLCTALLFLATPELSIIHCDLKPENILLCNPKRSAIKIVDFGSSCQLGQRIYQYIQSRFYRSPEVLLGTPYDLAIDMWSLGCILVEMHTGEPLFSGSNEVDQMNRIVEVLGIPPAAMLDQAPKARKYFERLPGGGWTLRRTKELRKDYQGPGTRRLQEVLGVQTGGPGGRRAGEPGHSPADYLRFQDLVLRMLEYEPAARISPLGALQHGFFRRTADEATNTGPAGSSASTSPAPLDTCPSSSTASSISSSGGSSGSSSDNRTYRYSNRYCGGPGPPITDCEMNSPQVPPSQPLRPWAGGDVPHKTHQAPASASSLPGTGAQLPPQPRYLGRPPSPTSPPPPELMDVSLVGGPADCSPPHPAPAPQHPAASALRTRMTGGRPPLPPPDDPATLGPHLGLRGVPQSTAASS

The term IC50 denotes the concentration that inhibits the measured activity by half. As to `COC(=N)c1nc2ccc3ncnc(Nc4ccc(Br)cc4F)c3c2s1`, the IC50 worked out at 0.24 nM in experiment [1] and 0.16 nM in experiment [2].

As to `COC(=N)c1nc2ccc3ncnc(Nc4ccc(F)cc4Br)c3c2s1`, the IC50 in experiment [1] was 6.55 nM; in experiment [2] it was 3.6 nM.
